Where two headings read alike, the source gives them in different places.
Target: T1, STAT6 (Homo sapiens, UniProt P42226)
T1 construct: endogenous in cells; host or cells: MOLM-16, KU-812, SKNO1, MB231, L1236
T1 sequence (P42226 1-847): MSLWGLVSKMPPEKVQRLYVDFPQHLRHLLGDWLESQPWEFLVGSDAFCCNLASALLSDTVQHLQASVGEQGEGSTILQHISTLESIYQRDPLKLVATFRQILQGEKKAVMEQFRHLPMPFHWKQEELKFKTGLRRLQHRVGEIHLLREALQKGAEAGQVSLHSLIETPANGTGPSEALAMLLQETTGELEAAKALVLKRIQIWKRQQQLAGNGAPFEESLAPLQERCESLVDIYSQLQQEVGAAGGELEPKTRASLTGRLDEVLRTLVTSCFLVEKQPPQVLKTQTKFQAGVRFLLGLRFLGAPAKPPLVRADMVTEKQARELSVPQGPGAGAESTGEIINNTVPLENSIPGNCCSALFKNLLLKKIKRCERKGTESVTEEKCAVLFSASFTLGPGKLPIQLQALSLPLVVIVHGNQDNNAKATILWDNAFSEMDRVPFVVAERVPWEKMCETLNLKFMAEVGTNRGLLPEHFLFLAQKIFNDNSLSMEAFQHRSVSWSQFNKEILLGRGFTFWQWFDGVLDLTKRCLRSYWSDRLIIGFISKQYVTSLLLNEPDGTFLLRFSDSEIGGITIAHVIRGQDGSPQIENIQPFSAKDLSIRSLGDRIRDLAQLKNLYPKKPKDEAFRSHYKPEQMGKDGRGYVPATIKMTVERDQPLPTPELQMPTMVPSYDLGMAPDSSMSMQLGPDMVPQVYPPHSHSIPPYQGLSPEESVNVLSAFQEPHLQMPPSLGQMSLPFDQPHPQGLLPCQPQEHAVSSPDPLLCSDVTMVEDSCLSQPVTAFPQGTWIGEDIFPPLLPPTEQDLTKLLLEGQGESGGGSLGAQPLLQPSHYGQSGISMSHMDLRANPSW
Assay: Immunoblotting (Western blot) analysis of STAT6 degradation efficiency of degraders in treated cells
Assay type: cell-based
Description: Evaluation of the degradation efficiency of degraders may be accomplished by immunoblotting analysis. The representative general protocol is the following:
Cells are maintained in the appropriate culture medium with 10% FBS at 37° C. and an atmosphere of 5% CO2. Cell lines are used within three months of thawing fresh vials. Cells are lysed 1× Cell Lysis Buffer (Cell Signaling Technology, #9803), resolved by SDS-PAGE NuPAGE gel (Thermo Fisher Scientific), and transferred to a PVDF membrane (Millipore). Membranes are blocked using Odyssey TBS Blocker Buffer (LI-COR). IRDye 680RD and 800CW Dye-labeled secondary antibodies (LI-COR) are used. The washed membranes are scanned using Odyssey CLx imager (LI-COR). The intensity of Western blot signaling is quantitated using the Odyssey software. Primary antibodies used are: STAT5 Rabbit mAb (Cell Signaling Technology, #94205), STAT6 Rabbit mAb (Cell Signaling Technology, #5397) and GAPDH mouse monoclonal antibody (Santa Cruz Biotechnology, sc-47724).
To evaluate the degradation efficiency of degraders, immunoblotting analysis was performed. The general protocol is the following.
About 1 million cells for each data point were treated with compounds at indicated concentrations and durations. Untreated and treated cells in cell culture medium were transferred into tubes, followed by centrifugation at 3,000 rpm and 4° C. for 6 min Supernatants were removed from tubes and radioimmunoprecipitation assay (RIPA) lysis buffer supplemented with 1% protease inhibitor cocktail (Fisher Scientific cat. PI87786) and phosphatase inhibitor (Roche cat. 04906837001) were added to tubes containing the remaining cell pellets. The tubes were then left on ice for 30 min and placed in a −80° C. freezer. Subsequently they were thawed in 37° C. water, then centrifuged at 14,000 rpm for 15 min and the cell lysates transferred to new tubes. The concentration of total proteins in each tube was calculated using the Pierce BCA protein Assay kit (cat. 23225). Based on the calculated protein concentration, cell lysates containing approximately the same amount of proteins were transferred to new tubes, then distilled water and 4× Protein Sample Loading Buffer for Western Blots (LI-COR cat. 928-40004) supplemented with 20% of mercaptoethanol (Sigma Aldrich cat. M6250) were added on ice. The cell lysates were then reduced and denatured at 95° C. for 5 min. From the tubes containing cell lysates an equal amount of protein samples (20-40 μg) was loaded into precast 8%, 10%, 4%-12%, or 4%-20% Tris-glycine gels (Novex) filled with Tris-glycine SDS running buffer. After the proteins were resolved, they were transferred onto Immobile-FL PVDF Membrane (Millipore Sigma cat. IPFL00010), using Mini Trans-Blot Electrophoretic Transfer Cell (Bio-Rad 1703930). The membranes were blocked with Intercept Blocking Buffer (LI-COR cat. 927-70001) in LI-COR Western Blot boxes for 1 h at rt. The membranes were washed with 1× Tris-buffered saline-Tween-20 (TBST, 1× solution was made from 20×TBST solution, ThermoFisher Scientific cat. 28360) for 5 min 4 times. The membranes were incubated overnight at 4° C. in Intercept Blocking Buffer supplemented with primary antibodies (normally antibody:buffer 1:1000) and Tween-20. The membranes were washed with TBST for 5 min 4 times and were incubated with Intercept Blocking Buffer supplemented with IRDye 800CE Secondary Antibodies, IRDye 680RD Secondary Antibodies (LI-COR biosciences), Tween-20, and 10% SDS solution, for 1 h at rt. The membranes were then washed with TBST for 5 min 4 times and rinsed with deionized water before drying and scanning with Odyssey Dlx Amazing System (LI-COR). The immunoblots were finally quantified by the software.

[1] = MOLM-16 cells, class symbols, read-out: DC50 S6 MOLM-16
[2] = L1236 cells, read-out: DC50 S6 L1236

Row | Structure (SMILES) | DC50 [1] | DC50 [2]
1 | Cc1ncsc1-c1ccc([C@H](CC(=O)NCCCCCCCC(=O)N[C@H]2C[C@@H](C(=O)N3CCO[C@H](c4ccccc4)C3)N(C(=O)[C@@H](NC(=O)c3cc4cc(C(F)(F)P(=O)(O)O)ccc4s3)C(C)(C)C)C2)NC(=O)[C@@H]2C[C@@H](O)CN2C(=O)[C@@H](NC(=O)C2(F)CC2)C(C)(C)C)cc1 [Compound 570, (difluoro(2-(((S)-1-((2S,4S)-4-(8-((S)-3-((2S,4R)-1-((S)-2-(1-fluorocyclopropane-1-carboxamido)-3,3-dimethylbutanoyl)-4-hydroxypyrrolidine-2-carboxamido)-3-(4-(4-methylthiazol-5-yl)phenyl)propanamido)octanamido)-2-((R)-2-phenylmorpholine-4-carbonyl)pyrrolidin-1-yl)-3,3-dimethyl-1-oxobutan-2-yl)carbamoyl)benzo[b]thiophen-5-yl)methyl)phosphonic acid] | > 10 µM | 
2 | Cc1ncsc1-c1ccc([C@H](C)NC(=O)[C@@H]2C[C@@H](O)CN2C(=O)[C@@H](NC(=O)CCCNC(=O)CO[C@H]2C[C@@H](C(=O)N3CCO[C@H](c4ccccc4)C3)N(C(=O)[C@@H](NC(=O)c3cc4cc(C(F)(F)P(=O)(O)O)ccc4s3)C(C)(C)C)C2)C(C)(C)C)cc1 [Compound 427, (difluoro(2-(((S)-1-((2S,4S)-4-(2-((4-(((S)-1-((2S,4R)-4-hydroxy-2-(((S)-1-(4-(4-methylthiazol-5-yl)phenyl)ethyl)carbamoyl)pyrrolidin-1-yl)-3,3-dimethyl-1-oxobutan-2-yl)amino)-4-oxobutyl)amino)-2-oxoethoxy)-2-((R)-2-phenylmorpholine-4-carbonyl)pyrrolidin-1-yl)-3,3-dimethyl-1-oxobutan-2-yl)carbamoyl)benzo[b]thiophen-5-yl)methyl)phosphonic acid] | > 10 µM | > 10 µM
3 | CC(C)(C)[C@H](NC(=O)c1cc2cc(C(F)(F)P(=O)(O)O)ccc2s1)C(=O)N1C[C@@H](OCC(=O)NCCCCC#Cc2ccc3c(c2)C(=O)N(C2CCC(=O)NC2=O)C3=O)C[C@H]1C(=O)N1CCC[C@H](c2ccccc2)C1 (stereo partly drawn) [Compound 500, ((2-(((2S)-1-((2S,4S)-4-(2-((6-(2-(2,6-dioxopiperidin-3-yl)-1,3-dioxoisoindolin-5-yl)hex-5-yn-1-yl)amino)-2-oxoethoxy)-2-((R)-3-phenylpiperidine-1-carbonyl)pyrrolidin-1-yl)-3,3-dimethyl-1-oxobutan-2-yl)carbamoyl)benzo[b]thiophen-5-yl)difluoromethyl)phosphonic acid] | > 10 µM | 
4 | Cc1ncsc1-c1ccc([C@H](C)NC(=O)[C@@H]2C[C@@H](O)CN2C(=O)[C@@H](NC(=O)CCCCCNC(=O)CO[C@H]2C[C@@H](C(=O)N3CCC[C@H](c4ccccc4)C3)N(C(=O)[C@@H](NC(=O)c3cc4cc(C(F)(F)P(=O)(O)O)ccc4s3)C(C)(C)C)C2)C(C)(C)C)cc1 [Compound 438, (difluoro(2-(((S)-1-((2S,4S)-4-(2-((6-(((S)-1-((2S,4R)-4-hydroxy-2-(((S)-1-(4-(4-methylthiazol-5-yl)phenyl)ethyl)carbamoyl)pyrrolidin-1-yl)-3,3-dimethyl-1-oxobutan-2-yl)amino)-6-oxohexyl)amino)-2-oxoethoxy)-2-((R)-3-phenylpiperidine-1-carbonyl)pyrrolidin-1-yl)-3,3-dimethyl-1-oxobutan-2-yl)carbamoyl)benzo[b]thiophen-5-yl)methyl)phosphonic acid] | > 10 µM | > 10 µM
5 | CC(C)(C)[C@H](NC(=O)c1cc2cc(C(F)(F)P(=O)(O)O)ccc2s1)C(=O)N1C[C@@H](OCC(=O)NCCCCCCCCC#Cc2cccc3c2C(=O)N(C2CCC(=O)NC2=O)C3=O)C[C@H]1C(=O)N1CCC[C@H](c2ccccc2)C1 (stereo partly drawn) [Compound 503, ((2-(((2S)-1-((2S,4S)-4-(2-((10-(2-(2,6-dioxopiperidin-3-yl)-1,3-dioxoisoindolin-4-yl)dec-9-yn-1-yl)amino)-2-oxoethoxy)-2-((R)-3-phenylpiperidine-1-carbonyl)pyrrolidin-1-yl)-3,3-dimethyl-1-oxobutan-2-yl)carbamoyl)benzo[b]thiophen-5-yl)difluoromethyl)phosphonic acid] | > 10 µM | 
6 | CC(C)(C)[C@H](NC(=O)c1cc2cc(C(F)(F)P(=O)(O)O)ccc2s1)C(=O)N1C[C@@H](OCC(=O)NCCCC#Cc2ccc3c(c2)C(=O)N(C2CCC(=O)NC2=O)C3=O)C[C@H]1C(=O)N1CCO[C@H](c2ccccc2)C1 (stereo partly drawn) [Compound 484, ((2-(((2S)-1-((2S,4S)-4-(2-((5-(2-(2,6-dioxopiperidin-3-yl)-1,3-dioxoisoindolin-5-yl)pent-4-yn-1-yl)amino)-2-oxoethoxy)-2-((R)-2-phenylmorpholine-4-carbonyl)pyrrolidin-1-yl)-3,3-dimethyl-1-oxobutan-2-yl)carbamoyl)benzo[b]thiophen-5-yl)difluoromethyl)phosphonic acid] | 1 to 10 µM | 
7 | CC(C)(C)[C@H](NC(=O)c1cc2cc(C(F)(F)P(=O)(O)O)ccc2s1)C(=O)N1CCN(C(=O)CC(=O)NCCCC#Cc2cccc3c2C(=O)N(C2CCC(=O)NC2=O)C3=O)C[C@H]1C(=O)N1CCC[C@H](c2ccccc2)C1 (stereo partly drawn) [Compound 525, ((2-(((2S)-1-((2S)-4-(3-((5-(2-(2,6-dioxopiperidin-3-yl)-1,3-dioxoisoindolin-4-yl)pent-4-yn-1-yl)amino)-3-oxopropanoyl)-2-((R)-3-phenylpiperidine-1-carbonyl)piperazin-1-yl)-3,3-dimethyl-1-oxobutan-2-yl)carbamoyl)benzo[b]thiophen-5-yl)difluoromethyl)phosphonic acid] | > 10 µM | 
8 | Cc1ncsc1-c1ccc([C@H](CC(=O)NCCCCCCCCC(=O)N[C@H]2C[C@@H](C(=O)N3CCO[C@H](c4ccccc4)C3)N(C(=O)[C@@H](NC(=O)c3cc4cc(C(F)(F)P(=O)(O)O)ccc4s3)C(C)(C)C)C2)NC(=O)[C@@H]2C[C@@H](O)CN2C(=O)[C@@H](NC(=O)C2(F)CC2)C(C)(C)C)cc1 [Compound 571, (difluoro(2-(((S)-1-((2S,4S)-4-(9-((S)-3-((2S,4R)-1-((S)-2-(1-fluorocyclopropane-1-carboxamido)-3,3-dimethylbutanoyl)-4-hydroxypyrrolidine-2-carboxamido)-3-(4-(4-methylthiazol-5-yl)phenyl)propanamido)nonanamido)-2-((R)-2-phenylmorpholine-4-carbonyl)pyrrolidin-1-yl)-3,3-dimethyl-1-oxobutan-2-yl)carbamoyl)benzo[b]thiophen-5-yl)methyl)phosphonic acid] | > 10 µM | 

— patent US20230295197A1, “STAT5 and STAT6 Degraders and Uses Thereof” (REGENTS OF THE UNIVERSITY OF MICHICAN, priority 2022, published 2023)
